Test results: US9133232B2, “Fused pentacyclic polyethers” (priority 2003, dated 2015)
Read-outs that look alike come from different tables or passages of the source.

Assays:
rat brain synaptosome = assay: Competitive rat brain synaptosome assay (displacement of tritiated brevetoxin PbTx-2); assay type: binding; details: for Ki / EC50: competition with tritiated PbTx-2; for EC50: read-out: approximate EC50; for displacement of tritiated brevetoxin PbTx-2: compound added at about 1000× the concentration of the tritiated PbTx-2
Protocol: Competitive rat brain synaptosome assays were performed as described in Poli et al., 1986. […];

Male mosquito fish = assay type: in vivo; details: for death of fish exposed to brevenal alone: monitored 24 h
Protocol: Male mosquito fish (n=104) were used in this assay. Fish were placed individually in 50 mL beakers containing 20 mL water. The test compounds (PbTx-2 and brevenal) were dissolved in EtOH at a concentration of 0.1 mg/mL and added to the fish in a total of 200 μL EtOH. The control fish received 200 uL EtOH. Fish were exposed to toxin alone (1 μg/mL water), brevenal alone (1 or 2 μg/mL water), or both brevenal (1.0 μg/mL water and toxin (1.0 μg/mL water) with the brevenal being added 3 min. before the toxin. After addition of the difference compounds the fish were monitored for 24 h. or until the time of death. Significant differences were determined using a two-way Student's t-test.

Row | Compound | Ki (rat brain synaptosome) | EC50 (rat brain synaptosome) | displacement of tritiated brevetoxin PbTx-2 (rat brain synaptosome) | time of death after exposure, fish given brevenal and PbTx-2 (Male mosquito fish; brevenal 1.0 μg/mL water added 3 min. before PbTx-2 1.0 μg/mL water) | prolonging of life versus PbTx-2 only (Male mosquito fish; brevenal 1.0 μg/mL water added 3 min. before an equal concentration of PbTx-2) | death of fish exposed to brevenal alone (Male mosquito fish; brevenal alone 1 μg/ml water) | death of fish exposed to brevenal alone (Male mosquito fish; brevenal alone 2 μg/ml water)
1 | C=C/C=C\CC[C@H]1O[C@H]2CC[C@@]3(C)O[C@H]4[C@@H](O)C[C@@]5(C)O[C@@H](CC/C=C(C)/C(C)=C/C=O)[C@@H](C)C[C@@H]5O[C@@H]4C[C@@H]3O[C@@H]2CC[C@@]1(C)O [brevenal] | 1.86 µM | ~3.69 µM | ~80% | about 17 min. | ~2.5 fold | did not die after 24 h | did not die after 24 h
2 | di-O-Me brevenal | 0.68 µM | ~1.35 µM | ~80% | – | – | – | –
